Reference: US4587256A, “Novel thiazolidine derivatives” (Hoffmann-La Roche Inc., priority 1983, dated 1986)

What was measured:
[1] = molecular target: T1, aldose reductase from calves lenses (Bos taurus, UniProt P16116); assay: inhibiting activity of aldose reductase from calves lenses; assay type: biochemical; conditions: read-out: IC50 values (concentrations which bring about 50% enzyme inhibition)
T1 construct: aldose reductase from calves lenses; from tissue; host or cells: calf lens

galactosaemic rats = assay: dulcitol concentration in the eye lens of galactosaemic rats (30% galactose diet); assay type: in vivo; conditions: compared to untreated galactosaemic animals
Experimental: (§1) Furthermore, the compound of formula I in which R^1 is fluorine and R^2 is hydrogen was investigated for its activity on galactosaemic rats (30% galactose diet). More particularly, the dulcitol concentration in the eye lens was determined after 5 applications of 5 and of 20 mg/kg body weight per os over 2 days. Similarly, 20 mg/kg were administered intraperitoneally in an additional experiment. […] The same compound was also administered to streptozotocin-treated, diabetic rats (3 times 20 mg/kg p.o., 4, 8 and 24 hours after streptozotocin administration). Three (3) hours after the administration of the last dosage, the sorbitol concentration was determined in the eye lens and in the sciatic nerve.

[2] = test system: streptozotocin-treated, diabetic rats; assay: sorbitol concentration in eye lens and sciatic nerve of streptozotocin-treated, diabetic rats; assay type: in vivo; conditions: 3 times 20 mg/kg p.o. (4, 8 and 24 hours after streptozotocin), 3 hours after last dosage
Experimental: as §1

Row | Compound | IC50 [1] | dulcitol concentration in the eye lens (galactosaemic rats; 20 mg/kg administered intraperitoneally) | dulcitol concentration in the eye lens (galactosaemic rats; 5 applications of 5 mg/kg body weight per os over 2 days) | dulcitol concentration in the eye lens (galactosaemic rats; 5 applications of 20 mg/kg body weight per os over 2 days) | sorbitol concentration in the eye lens [2] | sorbitol concentration in the sciatic nerve [2]
1 | O=C1NC(=O)C2(CCOc3ccc(F)cc32)S1 (racemic) [(±)-6-fluoro-2,3-dihydrospiro[4H-1-benzopyran-4,5'-thiazolidine]-2',4'-dione] | 0.1 µM | significant decrease | significant decrease | significant decrease | clear decrease | clear decrease
2 | CC(=O)Nc1cc(F)cc2c1OCCC21SC(=O)NC1=O (racemic) [(±)-6-fluoro-8-acetamido-2,3-dihydrospiro[4H-1-benzopyran-4,5'-thiazolidine]-2',4'-dione] | 0.008 µM |  |  |  |  | 
3 | O=C1NC(=O)C2(CCOc3c([N+](=O)[O-])cc(F)cc32)S1 (racemic) [(±)-6-fluoro-8-nitro-2,3-dihydrospiro[4H-1-benzopyran-4,5'-thiazolidine]-2',4'-dione] | 0.089 µM |  |  |  |  | 
